Test results reported in patent US10813972B2, “Treatment of DNA damage and mitochondrial dysfunction using palm fruit juice” (BRANDEIS UNIVERSITY, priority 2013, dated 2020).

Test system: mitochondrial DNA (HV2, CO2, ND1) of HepG2 cells
Test: mtDNA mutational load in HepG2 cells grown 30 days with INH or INH+PFJ (multiplex LATE-PCR/Lights On-Lights Off assay)
Type: cell-based, human
Settings: 88 μM INH, HepG2, 30 days
Method: A liver carcinoma cell line (HepG2 cells, ATCC, Manassas, Va.) was grown for 30 days in the presence of either 88 μM INH (Sigma, St. Louis, Mo.) or 88 μM INH+50 μg/ml gallic acid equivalents (GAE) PFJ. A culture without these additives served as a non-treated control. Cells were grown in Eagle's Minimum Essential Medium (ATCC Manassas, Va.). The media were supplemented with 25 mM HEPES, 10% fetal bovine serum (BioWest), 50 units/mL Penicillin G, 50 units/mL Streptomycin, and 0.25 μg Amphotericin B (HyClone Antibiotic/Antimycotic Solution 100×) in 6-well plates at 37° C. and 5% CO2. The media and additives were replenished every other day. The cells were passaged as per ATCC's instructions at an initial density of 1×10^5 cells/ml.
At the end of the culture period, each HepG2 culture was tripsinized, spun at 100×g for 15 min at 4° C. and resuspended in Dulbecco's phosphate buffer solution (Sigma, St. Louis, Mo.) at a concentration of 1×10^3 cells/ml. DNA from these cultures was extracted by placing 5 μl of cell suspension into 32.5 μl volume of a lysis buffer containing 100 μg/ml proteinase K, 10 mM Tris-Cl pH 8.3, and 5 μM SDS (sodium-dodecyl-sulfate) and heating to 50° C. for 2 hours followed by 95° C. for 15 minutes. The samples were then stored at −20° C. […]

NNC(=O)c1ccncc1 [INH, isoniazid] was tested, and the “mtDNA mutational load (fluorescent signature changes indicative of mitochondrial DNA mutations)” value was “increases mtDNA mutational load”.
